Data: paper PMC8624133, “10th Trends in Medical Mycology Held on 8 to 11 October 2021, Aberdeen, Scotland, Organized by the European Confederation of Medical Mycology (ECMM)” (Journal of Fungi, 2021)
In brackets after ≈: the same amount, converted by molar mass. Where two headings read alike, the source gives them in different places. Starred links: 1 amine or outer side, 2 acyl side, 3 side chain; linkers in the order of their positions; H or OH if unused. Positions of bridges follow the written chain, without caps; N, C: chain ends. Non-standard residues stand in square brackets, D forms with d. Residues, ends and D or L forms follow the SMILES beside them. *: point of attachment. hTyr(3S-OH,4S-OH,3'-OSO3H) = N[C@H](C(=O)O)[C@H](O)[C@@H](O)c1ccc(O)c(OS(=O)(=O)O)c1; pTerphenylCO(4''-OnC5H11) = CCCCCOc1ccc(-c2ccc(-c3ccc(C(=O)*)cc3)cc2)cc1; Orn(4R-OH,5R-OH) = O=C([C@H](C[C@@H](O)[C@@H](O)N[*:3])N[*:1])[*:2]; hTyr(3S-OH,4S-OH) = N[C@H](C(=O)O)[C@H](O)[C@@H](O)c1ccc(O)cc1; Pro(3S-OH,4S-Me) = C[C@H]1CN[C@H](C(=O)O)[C@H]1O; X1 = CCCCCOc1ccc(-c2cc(-c3ccc(C(=O)*)cc3)no2)cc1; Gln(3R-OH) = NC(=O)C[C@@H](O)[C@H](N)C(=O)O; Hyp = O=C(O)[C@@H]1C[C@@H](O)CN1

Tests used:
Aspergillus tubingensis = experiment: EUCAST susceptibility; assay type: cell-based; settings: read-out: MIC
Experimental: The fungus was identified as Aspergillus niger and liposomal amphotericine B was switched to anidulafungin pending susceptibility testing as the patient had pre-existing […] (eGFR CKD-EPI 40 mL/min/1.73 m²). […] Despite increasing the anidulafungin dosage to 200 mg daily and adequate voriconazol levels, serum galactomannan levels remained elevated (index 2.1 at discharge). […] Since no extracardiac sources were found and the patient did well clinically, they were discharched. Anidulafungin was switched to caspofungin to facilitate ongoing IV treatment in the outpatient setting. […] The patient died shortly after. Obduction was not performed.

[1] = system: Parathyridaria percutanea; experiment: In vitro antifungal susceptibility; assay type: cell-based
C. guilliermondii = experiment: EUCAST E. Def 7.3.2 microdilution; assay type: cell-based, Candida guilliermondii; settings: n = 62; for MIC50 / MIC90: Meyerozyma guilliermondii
Candida auris isolates = experiment: microbe, parasite or virus in culture; assay type: cell-based; settings: for categorised as resistant on MIC: CDC guidelines; for MIC: Candidozyma auris, IQR given, read-out: median MIC
[2] = system: Phaeoacremonium parasiticum; experiment: Antifungal susceptibility testing; assay type: cell-based
Experimental: Results: Cultures for bacteria were sterile. Culture on Sabouraud was positive after 5 days of incubation, showing slow growing and initially white colonies. […] Its identification was performed by sequencing the internal transcribed spacer (ITS) region of ribosomal DNA, being the isolate identified as Phaeoacremonium parasiticum (100% homology).

[3] = system: C. auris clinical strains; experiment: organism not typed; assay type: cell-based, Candida auris; settings: range, 78 strains from patients with COVID-19
C. glabrata isolates = experiment: Rapid XTT assay based on EUCAST E.Def 7.3; assay type: cell-based, Candida glabrata; settings: […], mean ± SD
[4] = system: invasive C. glabrata strains; experiment: YeastOne Sensititre colorimetric broth microdilution; assay type: cell-based, Candida glabrata; settings: Nakaseomyces glabratus
Experimental: Material and Method: Thirty-six clinical isolates of invasive C. glabrata strains were analyzed in this study. Minimum inhibitory concentrations (MICs) were determined using colorimetric broth microdilution (YeastOneSensititre, Trek diagnostics). Genomic DNA was isolated using Qiagen DNA extraction Kit. The FKS1 and FKS2 gene fragment were amplified and PCR products were purified prior to sequencing. Double-strand sequencing of PCR products was performed using Sanger sequencing methodology. Sequences were analyzed with MEGA-6 software to identify specific SNP combination against wild-type sequences of C. glabrata.

C. glabrata [5] = experiment: ARIA surveillance, CLSI M27 broth microdilution; assay type: cell-based, Candida glabrata; settings: CLSI M60
Experimental: (§1) Materials & Methods: Isolates (n = 730) were collected and re-identified by MALDI-TOF or molecular methods. […] Percentage susceptibility (%S) or wild-type (%WT) were calculated according to CLSI breakpoints (CLSI supplement M60) or epidemiological cut-off values (CLSI supplement M59), respectively.

C. auris = experiment: EUCAST EDef 7.3.1 MIC and checkerboard microdilution; assay type: cell-based, Candida auris
Experimental: Methods: We studied 22 C. auris isolates obtained from different clinical samples from the Hospital La Fe, Valencia, Spain (eight from blood culture, seven from oropharynx and seven from urine cultures). Candida parapsilosis ATCC 22019 and Candida krusei ATCC 6258 were used as quality controls. The minimum inhibitory concentration (MIC) was determined according to the European Committee on Antibiotic Susceptibility Testing (EUCAST) EDef 7.3.1 document. The interaction between citral and the rest of antifungal drugs was assessed by a checkerboard microdilution method. […] The in vitro interaction of the drug combinations was interpreted in terms of the fractional inhibitory concentration index (FICI) as follows: FICI < 1, synergistic; FICI equal to 1, additive; and FICI > 1, indifferent or antagonistic.

[6] = system: C. albicans and C. glabrata; experiment: FUNGINOS candidemia survey, susceptibility according to CLSI; assay type: cell-based; settings: share of isolates
[7] = system: Rasamsonia argillacea species complex; experiment: Antifungal susceptibility testing; assay type: cell-based; settings: sputum isolate of a CF patient
C. fermentati = experiment: EUCAST E. Def 7.3.2 microdilution; assay type: cell-based, Candida fermentati; settings: n = 2
Other species of Candida = assay type: cell-based, Candida spp.
C. parapsilosis = assay type: cell-based, Candida parapsilosis
C. albicans = assay type: cell-based, Candida albicans
Candida albicans (CA) = experiment: Post-antifungal effect (PAFE); assay type: cell-based; settings: CA clinical isolate; all concentrations (1×, 4×, 16× bMIC), 1 h exposure
Experimental: (§2) Materials &Methods: Six Candida spp. […] For PAFE determinations, antifungal concentrations of 1×, 4×, and 16× bMiC were used. A starting inoculum of 1–[…] CFU/mLwas added to RPMl with the antifungal agent. Post 1 h exposure, cells were washed 3 times and resuspended in 10 mL of pre-warmed RPMl. Colony counts were performed at to, 1 h before and after final washt t2, t4, t8, t12, t24 and t48 h. PAFE was calculated as the difference in time required for isolates to rrow1-logio following the final cell wash compared to the growth control.

C. glabrata [8] = assay type: cell-based, Candida glabrata
C. parapsilosis (CPRP) = experiment: Post-antifungal effect (PAFE); assay type: cell-based, Candida parapsilosis
Experimental: as §2

C. krusei [9] = experiment: ARIA surveillance, CLSI M27 broth microdilution; assay type: cell-based, Candida krusei
Experimental: as §1

C. krusei [10] = assay type: cell-based, Candida krusei
C. glabrata (CGLA) = experiment: Post-antifungal effect (PAFE); assay type: cell-based, Candida glabrata
Experimental: as §2

C. tropicalis = assay type: cell-based, Candida tropicalis
[11] = 36 clinical isolates, read-out: median (Min–Max) MIC

Structure (SMILES): CCCCCOc1ccc(-c2ccc(-c3ccc(C(=O)N[C@H]4C[C@@H](O)[C@@H](O)NC(=O)[C@@H]5[C@@H](O)[C@@H](C)CN5C(=O)[C@H]([C@@H](C)O)NC(=O)[C@H]([C@H](O)[C@@H](O)c5ccc(O)cc5)NC(=O)[C@@H]5C[C@@H](O)CN5C(=O)[C@H]([C@@H](C)O)NC4=O)cc3)cc2)cc1 [anidulafungin] ({pTerphenylCO(4''-OnC5H11)}-[Orn(4R-OH,5R-OH)]T[Hyp][hTyr(3S-OH,4S-OH)]T[Pro(3S-OH,4S-Me)]; lactam 1-C)
- MIC (Aspergillus tubingensis): 0.03 µg/mL (≈ 0.0263 µM)
- in vitro susceptibility category [1]: resistance
- MIC50 (C. guilliermondii): 0.25 µg/mL (≈ 0.219 µM)
- MIC90 (C. guilliermondii): 0.5 µg/mL (≈ 0.438 µM)
- GM (C. guilliermondii): 0.304 µg/mL
- MIC Range (C. guilliermondii): 0.008 to 1 µg/mL
- categorised as resistant on MIC (Candida auris isolates): none
- MIC (Candida auris isolates): 0.25 µg/mL (≈ 0.219 µM)
- minimal inhibitory concentrations (MIC), in words [2]: higher
- MIC [3]: 0.015 to 8 µg/mL (≈ 0.0132 to 7.02 µM)
- XTT-absorbance in drug-treated wells (C. glabrata isolates; drug-free 0.37 ± 0.04): 0.11 ± 0.03
- XTT-absorbance in drug-treated wells (C. glabrata isolates; drug-free 0.39 ± 0.05): 0.25 ± 0.06
- MIC [4, 11]: 0.06 µg/mL
- MIC ([4]; isolate with FKS2 I661T): 0.06 µg/mL
- susceptibility (C. glabrata [5]; Italy): 15.8%
- susceptibility (C. glabrata [5]; Panama): 91.7%
- MIC of anidulafungin in combination with citral (C. auris): 0.016 µg/mL
- MIC (C. auris; Candidozyma auris, 22 clinical isolates): 0.125 µg/mL
- non-susceptibility [6]: 2%
- minimal inhibitory concentrations (MIC) [7]: low MIC
- GM (C. fermentati): 0.25 µg/mL
- MIC Range (C. fermentati): 0.25 µg/mL (≈ 0.219 µM)

Structure (SMILES): CCCCCOc1ccc(-c2cc(-c3ccc(C(=O)N[C@H]4C[C@@H](O)[C@@H](O)NC(=O)[C@@H]5[C@@H](O)[C@@H](C)CN5C(=O)[C@H]([C@H](O)CC(N)=O)NC(=O)[C@H]([C@H](O)[C@@H](O)c5ccc(O)c(OS(=O)(=O)O)c5)NC(=O)[C@@H]5C[C@@H](O)CN5C(=O)[C@H]([C@@H](C)O)NC4=O)cc3)no2)cc1 [micafungin] (X1-[Orn(4R-OH,5R-OH)]T[Hyp][hTyr(3S-OH,4S-OH,3'-OSO3H)][Gln(3R-OH)][Pro(3S-OH,4S-Me)]; lactam 1-C)
- I (intermediate) isolates, n (%) (Other species of Candida): 0 (0%)
- R (resistant) isolates, n (%) (Other species of Candida): 0 (0%)
- S (sensitive) isolates, n (%) (Other species of Candida): 18 (100%)
- MIC50 (C. guilliermondii): 0.25 µg/mL (≈ 0.197 µM)
- MIC90 (C. guilliermondii): 0.5 µg/mL (≈ 0.394 µM)
- GM (C. guilliermondii): 0.228 µg/mL
- MIC Range (C. guilliermondii): 0.008 to 0.5 µg/mL
- I (intermediate) isolates, n (%) (C. parapsilosis): 0 (0%)
- R (resistant) isolates, n (%) (C. parapsilosis): 0 (0%)
- S (sensitive) isolates, n (%) (C. parapsilosis): 132 (100%)
- I (intermediate) isolates, n (%) (C. albicans): 1 (0.7%)
- R (resistant) isolates, n (%) (C. albicans): 1 (0.7%)
- S (sensitive) isolates, n (%) (C. albicans): 136 (98.6%)
- PAFE (Candida albicans (CA)): > 14.9 h
- categorised as resistant on MIC (Candida auris isolates): 1.4%
- MIC (Candida auris isolates): 0.12 µg/mL (≈ 0.0945 µM)
- MIC [3]: 0.06 to 1 µg/mL (≈ 0.0472 to 0.787 µM)
- MIC [4, 11]: 0.015 µg/mL
- MIC ([4]; isolate with FKS2 I661T): 0.015 µg/mL
- I (intermediate) isolates, n (%) (C. glabrata [8]): 0 (0%)
- R (resistant) isolates, n (%) (C. glabrata [8]): 0 (0%)
- S (sensitive) isolates, n (%) (C. glabrata [8]): 55 (100%)
- PAFE (C. parapsilosis (CPRP); CPRP ATCC 22019, 1× and 4× bMIC): no micafungin PAFE was observed
- PAFE (C. parapsilosis (CPRP); CPRP ATCC 22019, 16× bMIC): 1.8 h
- PAFE (C. parapsilosis (CPRP); CPRP clinical isolate, 1× bMIC): 1.6 h
- PAFE (C. parapsilosis (CPRP); CPRP clinical isolate, 4× bMIC): 7.4 h
- PAFE (C. parapsilosis (CPRP); CPRP clinical isolate, 16× bMIC): 31.3 h
- susceptibility (C. krusei [9]; Argentina, Australia, Italy and Taiwan): 100%
- susceptibility (C. krusei [9]; USA): 73.3%
- S (sensitive) isolates, n (%) (C. krusei [10]): 3 (100%)
- PAFE (C. glabrata (CGLA); CGLA #3 isolate, 1× bMIC): 20.4 h
- PAFE (C. glabrata (CGLA); both CGLA strains, all concentrations): > 40 h
- non-susceptibility [6]: 2%
- I (intermediate) isolates, n (%) (C. tropicalis): 0 (0%)
- R (resistant) isolates, n (%) (C. tropicalis): 0 (0%)
- S (sensitive) isolates, n (%) (C. tropicalis): 44 (100%)
- GM (C. fermentati): 0.125 µg/mL
- MIC Range (C. fermentati): 0.125 µg/mL (≈ 0.0984 µM)
